“And” between values parts separate entries of the source, which are not always exact repeats. Identical values can stand only once. Like-named read-outs stand apart in the source and are kept apart here.
Key:
eIF1A-RPS10 interaction = molecular target: T1, eIF1A-RPS10 interaction (Homo sapiens, UniProt P46783+P47813); assay: Split-Renilla luciferase eIF1A-RPS10 interaction screen, dose-response; format: biochemical
T1 construct: made in house; host or cells: E. coli BL21 (PRSFduet); unpurified lysate supernatant
T1 sequence (P47813 whole entry, one chain of several): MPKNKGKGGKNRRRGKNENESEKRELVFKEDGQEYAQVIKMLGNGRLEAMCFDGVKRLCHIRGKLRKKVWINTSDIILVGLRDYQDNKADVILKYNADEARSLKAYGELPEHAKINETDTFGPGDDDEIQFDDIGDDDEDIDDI
How it was run: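 Recombinant split-luciferase fusions were produced bacterially, lysed by sonication in TKE buffer and the cleared supernatants tested for Renilla activity. Compounds, held as 10 mM DMSO stocks, were then assayed for interference with the reconstituted signal, with unfused Renilla halves run as controls.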

eIF1A = molecular target: T2, eIF1A (Homo sapiens, UniProt P47813); format: binding; conditions: for fluorescence ratio, eIF1A: background-corrected, relative to DMSO or lowest 1Ai concentration, replicate columns; for WT eIF1A IC50: fluorescence binding
T2 construct: His-bdSUMO (cleaved yes); made in house; host or cells: E. coli BL-21
T2 sequence (P47813 whole entry): as the sequence (P47813 whole entry, one chain of several) above

RPS10 = molecular target: T3, RPS10 (Homo sapiens, UniProt P46783); format: binding; conditions: for RPS10 IC50: fluorescence binding
T3 construct: made in house; host or cells: E. coli BL-21

[1] = system: cap-proximal AUG GFP reporter in HEK293T cells; format: cell-based; conditions: GFP WB densitometry; 20 µM overnight; dmso 0.965946;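 also: ratio of upstream to downstream AUG initiation products on GFP Western blot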
NSP1 = NSP1 (Severe acute respiratory syndrome coronavirus 2, UniProt P0DTD1)
[2] = summary table, read-out: IC50 concentration (µM), IC50 screen
[3] = summary table, fluorescence binding assay
[4] = read-out: IC50 (line under RPS10 binding data)
[5] = summary table, fluorescence binding assay, read-out: IC50 concentration (µM), RPS10
[6] = eIF1A, from the titration data, read-out: IC50 (eIF1A titration block)
[7] = summary table, fluorescence binding assay, read-out: IC50 concentration (µM), WT eIF1A

| Structure (SMILES) | IC50 (eIF1A-RPS10 interaction; [2]) | fluorescence ratio, eIF1A (eIF1A; 1Ai conc. 0.25 uM) | fluorescence ratio, eIF1A (eIF1A; 1Ai conc. 1 uM) | fluorescence ratio, eIF1A (eIF1A; 1Ai conc. 2 uM) | fluorescence ratio, eIF1A (eIF1A; 1Ai conc. 4 uM) | fluorescence ratio, eIF1A (eIF1A; 1Ai conc. 8 uM) | fluorescence ratio, eIF1A (eIF1A; 1Ai conc. 16 uM) | fluorescence ratio, eIF1A (eIF1A; 1Ai conc. 32 uM) | fluorescence ratio, eIF1A (eIF1A; 1Ai conc. 64 uM) | fluorescence ratio, eIF1A (eIF1A; 1Ai conc. 256 uM) | RPS10 fluorescence ratio to control (RPS10; 1Ai conc. 0.25 uM) | RPS10 fluorescence ratio to control (RPS10; 1Ai conc. 0.5 uM) | RPS10 fluorescence ratio to control (RPS10; 1Ai conc. 1 uM) | RPS10 fluorescence ratio to control (RPS10; 1Ai conc. 2 uM) | RPS10 fluorescence ratio to control (RPS10; 1Ai conc. 4 uM) | RPS10 fluorescence ratio to control (RPS10; 1Ai conc. 8 uM) | RPS10 fluorescence ratio to control (RPS10; 1Ai conc. 16 uM) | RPS10 fluorescence ratio to control (RPS10; 1Ai conc. 32 uM) | US/DS ratio, average [1] | GFP reporter ratio nsp1/gfp, avg (NSP1) | also measured |
| --- | --- | --- | --- | --- | --- | --- | --- | --- | --- | --- | --- | --- | --- | --- | --- | --- | --- | --- | --- | --- | --- |
| Cn1c(=O)c2ccccc2n2c(CNC(c3ccc4c(c3)CCC4)c3cccs3)nnc12 (centres unmarked) [1Ai-7688] | 20 µM | 1.037 and 0.9455 | 1.06 and 0.9161 | 1.104 and 0.9936 | 1.1 and 0.9264 | 1.007 and 0.92 | 0.939 and 0.9024 | 0.8822 and 0.9176 | 0.9562 and 1.05 | 1.305 and 1.351 | 1.264 | 2.089 | 1.116 | 1.353 | 1.556 | 0.3218 | 0.1412 | 0.0755 | 0.7504 | 0.4413 | fluorescence ratio, eIF1A (eIF1A; 1Ai conc. 0.5 uM): 1.0637 and 0.9156; WT eIF1A IC50 (eIF1A): No binding; IC50 concentration (µM), WT eIF1A (eIF1A; [3]): No binding; IC50 (RPS10; [4]): 4.5 µM; IC50 (RPS10; read-out: RPS10 IC50): 4.5 µM; IC50 (RPS10; [5]): 4.5 µM; GFP reporter ratio nsp1/gfp, rep 1 (NSP1): 0.4413; gfp signal, mean of duplicate wells (NSP1): 1907; nsp1 signal, mean of duplicate wells (NSP1): 841.5; ratio (nsp1/gfp) (NSP1): 0.441 |
| CN(C)CC1CCn2cc(c3ccccc32)C2=C(C(=O)NC2=O)c2cn(c3ccccc23)CCO1 (centres unmarked) [1Ai-5662] | 25 µM | 0.7967 and 0.9449 | 0.7317 and 0.9217 | 1.065 and 0.7855 | 1.002 and 0.7942 | 0.774 and 0.658 | 0.5642 and 0.6667 | 0.2341 and 0.4609 | 0.1593 and 0.2928 | 0.1171 and 0.07826 | 0.8917 | 1.048 | 0.937 | 0.8646 | 0.7525 | 0.6979 | 0.6531 | 0.6137 | 3.065 | 0.4084 | fluorescence ratio, eIF1A (eIF1A; 1Ai conc. 0.5 uM, listed as 5662): 0.8569 and 0.971; IC50 (eIF1A; [6]): 20.9 µM; IC50 (eIF1A; [7]): 20.9 µM; RPS10 fluorescence ratio to control (RPS10; 1Ai conc. 64 uM): 0.4569; RPS10 fluorescence ratio to control (RPS10; 1Ai conc. 256 uM): 0.295; RPS10 IC50 (RPS10): No binding; IC50 concentration (µM), RPS10 (RPS10; [3]): No binding; GFP reporter ratio nsp1/gfp, rep 1 (NSP1): 0.4084; gfp signal, mean of duplicate wells (NSP1): 442; nsp1 signal, mean of duplicate wells (NSP1): 180.5; ratio (nsp1/gfp) (NSP1): 0.408 |
| O=C(C=Cc1ccc(Cl)s1)Nc1cccc2ncccc12 [1Ai-4860] | 23 µM | 1.378 and 0.7463 | 1.444 and 0.7972 | 1.487 and 1.19 | 1.443 and 1.135 | 0.951 and 1.007 | 1.0935 and 0.6993 | 1.055 and 0.7323 | 1.155 and 0.874 | 1.071 and 0.7793 | 0.9517 | 0.9517 | 0.8947 | 0.9408 | 0.8788 | 0.814 | 0.7263 | 0.7395 | 1.03 | 0.4044 | fluorescence ratio, eIF1A (eIF1A; 1Ai conc. 0.5 uM): 1.41 and 0.8167; WT eIF1A IC50 (eIF1A): No binding; IC50 concentration (µM), WT eIF1A (eIF1A; [3]): No binding; RPS10 fluorescence ratio to control (RPS10; 1Ai conc. 64 uM): 0.7335; RPS10 fluorescence ratio to control (RPS10; 1Ai conc. 256 uM): 0.5649; RPS10 IC50 (RPS10): No binding; IC50 concentration (µM), RPS10 (RPS10; [3]): No binding; GFP reporter ratio nsp1/gfp, rep 1 (NSP1): 0.428; GFP reporter ratio nsp1/gfp, rep 2 (NSP1): 0.3807; gfp signal, mean of duplicate wells (NSP1): 2781.5 and 4263; nsp1 signal, mean of duplicate wells (NSP1): 1059 and 1824.5; ratio (nsp1/gfp) (NSP1): 0.381 and 0.428 |
| COc1cccc(Nc2nc(-c3ccc(NC(C)=O)cc3)c(C)s2)c1 [1Ai-1869] | 14 µM | 0.7968 and 0.7342 | 0.8128 and 0.72 | 1.007 and 0.8137 | 0.913 and 0.7844 | 0.7676 and 0.6709 | 0.6554 and 0.584 | 0.5701 and 0.4814 | 0.4848 and 0.4176 | 0.3469 and 0.3333 | 0.7198 | 0.6885 | 0.6476 | 0.5996 | 0.5488 | 0.4668 | 0.3725 | 0.2785 | 1.144 | 0.4109 | IC50 (eIF1A-RPS10 interaction; Appendix Table S1, read-out: IC50 from the split RL screen): 18 µM; fluorescence ratio, eIF1A (eIF1A; 1Ai conc. 0.5 uM): 0.8838 and 0.7405; IC50 (eIF1A; [6]): 20.4 µM; IC50 (eIF1A; [7]): 20.4 µM; RPS10 fluorescence ratio to control (RPS10; 1Ai conc. 64 uM): 0.234; RPS10 fluorescence ratio to control (RPS10; 1Ai conc. 256 uM): 0.2345; IC50 (RPS10; [4]): 7.7 µM; IC50 (RPS10; read-out: RPS10 IC50): 7.7 µM; IC50 (RPS10; [5]): 7.7 µM; GFP reporter ratio nsp1/gfp, rep 1 (NSP1): 0.4212; GFP reporter ratio nsp1/gfp, rep 2 (NSP1): 0.4006; ratio (nsp1/gfp) (NSP1): 0.421 and 0.401 and 0.735 |

Source: article PMC12216609, “Inhibitors of eIF1A-ribosome interaction unveil uORF-dependent regulation of translation initiation and antitumor and antiviral effects” (The EMBO Journal, 2025)
